A short description of this series: Storage stability of drug solutions: N-oxide content by ion pair reversed phase HPLC. The class given is physicochemical. The conditions noted are these: solutions stored for 7 days at 40° C.; formulation employing levulinic acid.

The source of these data is US20040166148A1, “Transdermal therapeutic delivery systems with a butenolide” (priority 2003, published 2004).

For the compound `CC(=O)CCC(=O)O` [levulinic acid], the “N-oxide content of the formulation” value was “below 0.06%”.
